The subject of experiment [1] is A1-receptor-Y^288A. The experiment is classed as cell-based, human. The conditions noted are these: for receptor upregulation with only one of the inhibitors (immunoblot): sole inhibitor, 2 μM EHNA or 10 μM dipyridamole; for role of blockage of adenosine efflux in receptor upregulation: added to EHNA and 5-iodotubercidin. For orientation: Immunoblotting shows a protein as a band on a membrane.

The target of another experiment is T1, A1 receptor (Homo sapiens, UniProt P30542).
T1 sequence (P30542 1-326): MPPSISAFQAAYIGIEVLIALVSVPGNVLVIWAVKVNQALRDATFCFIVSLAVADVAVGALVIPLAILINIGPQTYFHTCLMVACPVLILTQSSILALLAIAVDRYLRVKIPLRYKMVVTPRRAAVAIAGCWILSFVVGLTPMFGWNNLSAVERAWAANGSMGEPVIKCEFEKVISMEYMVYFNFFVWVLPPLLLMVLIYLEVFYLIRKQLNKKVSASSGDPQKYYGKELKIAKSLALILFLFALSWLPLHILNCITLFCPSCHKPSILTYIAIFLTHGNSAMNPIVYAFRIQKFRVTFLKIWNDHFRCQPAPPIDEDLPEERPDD
Kind of experiment: Binding of the inhibitors to the A1 receptor. The conditions noted are these: nanomolar to micromolar range.

Another experiment deals with adenosine deaminase. The note with it: ref Ingolia et al., 1985; cited from earlier work.
The test system of experiment [2] is A1-receptor-Y^288A. Briefly: Confocal microscopy of YFP-tagged A1-receptor-Y288A distribution. The experiment is classed as cell-based, human. The conditions noted are these: 1 μM DPCPX or combination of inhibitors.
The subject of experiment [3] is A1-receptor-Y^288A. The experiment is classed as cell-based, human. The note with it: SF-TAP-tagged receptor, 24 hours treatment, 15 nM [3H]DPCPX.
Experiment [4] deals with T2, A1-receptor-Y^288A (Homo sapiens, UniProt P30542, Y288A).
T2 sequence (P30542 1-326 Y288A): T1 sequence (P30542 1-326) with Y288A
The experiment is classed as binding. The note with it: membranes of untreated cells.

The subject of experiment [5] is A1-receptor-Y^288A. The experiment is classed as cell-based, human. The conditions noted are these: 24 hours; 1 μM DPCPX or inhibitor combination.
The target in a further experiment is T3, wild-type A1 receptor (Homo sapiens, UniProt P30542).
T3 sequence (P30542 1-326): T1 sequence (P30542 1-326)
The experiment is classed as binding. The note with it: SF-TAP-tagged receptor.

The target of the next experiment is human ENT1. The note with it: read-out: affinity; ref Ward et al., 2000; cited from earlier work.
The target of a further experiment is human ENT2. The conditions noted are these: read-out: affinity; ref Ward et al., 2000; cited from earlier work.
The mark [6] stands for this setting: 24 hours, 0.5 μM iodotubercidin.

Numbering of substitutions follows the chain as printed. Like-named read-outs stand apart in the source and are kept apart here.

As for `CCCCCC[C@@H]([C@@H](C)O)n1cnc2c(N)ncnc21` (racemic) [EHNA, Erythro-9-(2-hydroxy-3-nonyl)adenine], the “receptor upregulation with only one of the inhibitors (immunoblot)” value in the experiment with A1-receptor-Y^288A [1] (setting [6]) is “not present”. Besides, on A1 receptor, the “binding to the A1 receptor” value is given as “neither EHNA nor 5-iodotubercidin nor dipyridamole per se, nor their combination, used in the experiments bound to the A1 receptor”. Also, the Ki at adenosine deaminase was 33 nM.

Turning to `Nc1ncnc2c1c(I)cn2[C@@H]1O[C@H](CO)[C@@H](O)[C@H]1O` [5-iodotubercidin], in the experiment on A1-receptor-Y^288A [1] (setting [6]), the “receptor upregulation with only one of the inhibitors (immunoblot)” value is “not present”. Further, at A1 receptor, the “binding to the A1 receptor” value is “neither EHNA nor 5-iodotubercidin nor dipyridamole per se, nor their combination, used in the experiments bound to the A1 receptor”.

As for `CCCn1c(=O)c2[nH]c(C3CCCC3)nc2n(CCC)c1=O` [DPCPX, 8-cyclopentyl-1,3-dipropylxanthine], the “fate of receptor after cycloheximide block (mature glycosylated forms)” value in the experiment on A1-receptor-Y^288A [1] (4 hours preincubation, then cycloheximide 50 μg/ml for 2 or 4 hours) is “concomitant increase in the mature glycosylated forms of the receptor”. Besides, the “level of receptor protein (immunoblot)” value in the experiment with A1-receptor-Y^288A [1] (HEK293 stably expressing A1-receptor-Y288A-YFP, 24 hours, 1 μM DPCPX, 2 μM EHNA, 0.5 μM iodotubercidin, 10 μM dipyridamole) is “elevated levels of the receptor protein”. Besides, in the experiment on A1-receptor-Y^288A [1] (incubation 1, 2, 4, 8 or 24 hours), the “time of maximum chaperoning effect” value came to 24 h. Besides, the “distribution of receptor fluorescence (confocal)” value in the experiment with A1-receptor-Y^288A [2] was “the fluorescence was visualized on the cell surface”. Besides, in the experiment on A1-receptor-Y^288A [3], the “binding of [3H]DPCPX by the receptors accumulated after treatment” value is “did bind the radioligand”. For the same compound, the Bmax is reported as 486.3 ± 80.0 fmol/mg on A1-receptor-Y^288A [4]; 15.0 ± 0.8 pmol/mg on wild-type A1 receptor (hypoxic cells (5% O2, 24 hours)); 12.2 ± 0.3 pmol/mg at wild-type A1 receptor (normoxic cells). For the same compound, the “YFP fluorescence (flow cytometry)” value in the experiment on A1-receptor-Y^288A [5] is “substantial accumulation of YFP fluorescence”.

In the case of `O=[N+]([O-])c1ccc(CSc2ncnc3c2ncn3[C@@H]2O[C@H](CO)[C@@H](O)[C@H]2O)cc1` [NBMPR, S-(4-nitrobenzyl)-6-thioinosine], the “role of blockage of adenosine efflux in receptor upregulation” value with A1-receptor-Y^288A [1] (24 hours) is reported as “indispensable for receptor upregulation”.

Consider `OCCN(CCO)c1nc(N2CCCCC2)c2nc(N(CCO)CCO)nc(N3CCCCC3)c2n1` [dipyridamole], for which the “role of blockage of adenosine efflux in receptor upregulation” value in the experiment with A1-receptor-Y^288A [1] (24 hours) is given as “indispensable for receptor upregulation”. The “receptor upregulation with only one of the inhibitors (immunoblot)” value in the experiment on A1-receptor-Y^288A [1] (setting [6]) was “not present”. For the same compound, the “binding to the A1 receptor” value on A1 receptor is given as “neither EHNA nor 5-iodotubercidin nor dipyridamole per se, nor their combination, used in the experiments bound to the A1 receptor”. In addition, the Ki on human ENT1 is ~5 nM; at human ENT2, ~350 nM.

On to `O=C1N[C@@H]2[C@@H](O)[C@@H](O)[C@H](O)[C@@H](CO)N2C1=O` [kifunensine], for which, in the experiment on A1-receptor-Y^288A [3], the “binding of [3H]DPCPX by the receptors accumulated after treatment” value is “failed to bind the antagonist radioligand [^3H]DPCPX”.

The values above are taken from publication PMC4513639 (Molecular pharmacology, 2014).
